# Laboratory results published in ChEMBL document CHEMBL1201862, “PubChem BioAssay data set” (2004).
# Active and inactive are the calls of the source.
# Experiments:
# [1] = biological target: Matrix metalloproteinase-14 (Homo sapiens, UniProt P50281); assay: Dose Response confirmation of uHTS hits for a small molecule inhibitors of MT1-MMP activation in a fluorescence assay set 2.; type: functional
# [2] = biological target: T1, Rac GTPase-activating protein 1 (Homo sapiens, UniProt Q9H0H5); assay: blockers of MgcRacGAP-driven Rac1 GTP hydrolysis – biochemical, ADP Hunter fluorescence, primary and confirmatory, confirmation (AID 624330); type: functional
# T1 sequence (Q9H0H5 whole entry): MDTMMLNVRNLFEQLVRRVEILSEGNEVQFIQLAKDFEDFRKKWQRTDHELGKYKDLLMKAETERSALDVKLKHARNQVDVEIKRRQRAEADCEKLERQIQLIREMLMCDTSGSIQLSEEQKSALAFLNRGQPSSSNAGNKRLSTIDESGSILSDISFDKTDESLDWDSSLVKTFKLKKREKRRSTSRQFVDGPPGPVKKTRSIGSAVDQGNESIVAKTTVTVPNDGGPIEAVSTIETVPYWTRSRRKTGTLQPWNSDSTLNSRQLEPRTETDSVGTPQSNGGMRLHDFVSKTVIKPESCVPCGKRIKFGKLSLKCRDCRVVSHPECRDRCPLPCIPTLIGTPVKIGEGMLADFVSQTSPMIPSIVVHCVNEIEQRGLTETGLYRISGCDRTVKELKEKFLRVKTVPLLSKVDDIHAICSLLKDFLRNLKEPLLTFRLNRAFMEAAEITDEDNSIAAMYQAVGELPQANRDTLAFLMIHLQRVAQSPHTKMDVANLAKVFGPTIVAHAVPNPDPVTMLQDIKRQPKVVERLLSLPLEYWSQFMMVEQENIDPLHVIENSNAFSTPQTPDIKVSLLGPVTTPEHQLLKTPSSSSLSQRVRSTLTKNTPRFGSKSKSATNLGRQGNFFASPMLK
# [3] = biological target: Paired box protein Pax-8 (Homo sapiens, UniProt Q06710); assay: PAX8 transcriptional activity inhibition in RMG-I – RMG-I cells, luciferase, cherry-pick, dose response (AID 687027); type: functional, cell-based;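 note: luciferase reporter driven by Pax8 target thyroperoxidase promoter measured by SteadyGlo luminescence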
# [4] = general cell-killing toxicity readout – plate reader, dry powder samples, cytotoxicity control for PAX8 inhibitor project, dose response (AID 743021); type: functional, cell-based
# [5] = CMV-driven luciferase expression suppression in HEK293 – cell-based, luminescence, dry powder, counter-screen for Pax8 inhibitor project, dose response (AID 743020); type: functional
# [6] = biological target: Fructose-bisphosphate aldolase (Mycobacterium tuberculosis, UniProt P9WQA3); assay: Fluorescence-based biochemical high throughput dose response assay for inhibitors of the fructose-bisphosphate aldolase (FBA) of M. tuberculosis.; type: functional
# [7] = biological target: Protein Wnt-3a (Mus musculus, UniProt P27467); assay: SAR analysis of small molecule antagonists of Gli-SUFU in a Wnt3a luminescent reporter assay.; type: functional
# [8] = reduction of Shn3 3'UTR-driven luciferase in osteoblasts – cell-based, Clone20 osteoblasts, firefly luciferase, cherry-picked, dose response (AID 624132); type: functional;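 note: firefly luciferase luminescence from reporter carrying the Shn3 3'UTR in osteoblasts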
# [9] = biological target: T2, Low molecular weight phosphotyrosine protein phosphatase (Homo sapiens, UniProt P24666); type: functional; conditions: read-out: IC50_Mean
# T2 sequence (P24666 whole entry): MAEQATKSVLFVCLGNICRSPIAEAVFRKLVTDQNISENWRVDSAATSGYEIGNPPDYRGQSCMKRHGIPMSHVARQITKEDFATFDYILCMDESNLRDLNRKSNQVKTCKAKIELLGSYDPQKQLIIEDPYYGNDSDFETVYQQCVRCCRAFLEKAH
# [10] = biological target: T2, Low molecular weight phosphotyrosine protein phosphatase; type: functional; conditions: read-out: IC50_Mean; remark: listed apart in the source
# [11] = Shn3 3'UTR reporter signal decrease – cell-based, Clone20 osteoblasts, firefly luciferase, cherry-pick, set 2, Schnurri-3 inhibitor project, dose response (AID 720490); type: functional;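 note: actives lower the luminescence signal as inhibitors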
# [12] = non-specific 3'UTR reporter inhibition in Clone20-Shn3RL – cell-based, Renilla luciferase, cherry-picked, counter-screen for Shn3 inhibitor project, dose response (AID 624133); type: functional
# [13] = loss of viability in HepG2 cells – cell-based, CellTiter-Glo, cherry-picked, cytotoxicity control for Shn3 inhibitor project, dose response (AID 624134); type: functional
# [14] = EF1alpha-driven Renilla reporter with control 3'UTR suppression – Clone20-Shn3RL cells, dual-Glo, cherry-pick, set 2, counter-screen for Shn3 3'UTR targeting project, dose response (AID 720724); type: functional, cell-based; conditions: Dual-Go Shn3RL
# Chain of Protein Wnt-3a (P27467 whole entry): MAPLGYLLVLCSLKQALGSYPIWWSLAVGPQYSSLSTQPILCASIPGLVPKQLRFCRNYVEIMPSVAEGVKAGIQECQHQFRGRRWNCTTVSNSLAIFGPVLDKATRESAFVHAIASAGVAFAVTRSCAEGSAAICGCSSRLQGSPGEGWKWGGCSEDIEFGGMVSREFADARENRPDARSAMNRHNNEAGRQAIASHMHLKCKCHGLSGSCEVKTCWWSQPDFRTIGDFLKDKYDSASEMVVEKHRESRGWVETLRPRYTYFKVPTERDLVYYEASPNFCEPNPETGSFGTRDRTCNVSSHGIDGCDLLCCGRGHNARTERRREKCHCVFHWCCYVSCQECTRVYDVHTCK
# Chain of Paired box protein Pax-8 (Q06710 whole entry): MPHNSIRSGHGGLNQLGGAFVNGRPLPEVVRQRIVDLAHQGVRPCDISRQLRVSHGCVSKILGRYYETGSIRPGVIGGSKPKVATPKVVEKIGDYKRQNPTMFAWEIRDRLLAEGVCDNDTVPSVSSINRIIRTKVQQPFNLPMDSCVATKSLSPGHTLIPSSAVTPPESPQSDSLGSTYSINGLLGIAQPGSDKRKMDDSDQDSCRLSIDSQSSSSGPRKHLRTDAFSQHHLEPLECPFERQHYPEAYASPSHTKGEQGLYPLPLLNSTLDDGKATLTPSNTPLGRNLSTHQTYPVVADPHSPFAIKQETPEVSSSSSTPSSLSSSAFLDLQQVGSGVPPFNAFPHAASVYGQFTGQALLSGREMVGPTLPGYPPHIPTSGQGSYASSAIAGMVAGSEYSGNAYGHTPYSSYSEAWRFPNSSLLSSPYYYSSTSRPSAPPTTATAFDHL
# Chain of Fructose-bisphosphate aldolase (P9WQA3 whole entry): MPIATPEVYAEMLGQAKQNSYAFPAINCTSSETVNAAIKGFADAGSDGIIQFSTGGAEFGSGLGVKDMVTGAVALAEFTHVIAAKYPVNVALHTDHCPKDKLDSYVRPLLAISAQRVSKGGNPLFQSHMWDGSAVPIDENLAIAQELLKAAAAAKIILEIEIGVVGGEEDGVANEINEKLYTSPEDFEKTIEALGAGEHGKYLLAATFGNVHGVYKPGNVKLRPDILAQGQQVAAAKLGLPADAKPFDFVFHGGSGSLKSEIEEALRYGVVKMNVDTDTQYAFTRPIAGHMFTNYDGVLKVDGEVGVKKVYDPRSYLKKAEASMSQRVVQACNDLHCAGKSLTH
smiles,measurement,setting,value
CN(C)/C=C/c1oc2ccc(O)cc2c1[N+](=O)[O-],IC50,[1],26.2 µM (inactive)
same,IC50,[2],14 µM (active)
COc1ccccc1S(=O)(=O)N(C)C[C@H]1Oc2cc(C#CCC3CCCC3)ccc2S(=O)(=O)N([C@@H](C)CO)C[C@H]1C,AC50,[3],9.5 µM (active)
same,AC50,[4],51.9 µM (active)
same,AC50,[5],55.2 µM (active)
Cc1ccc(-c2cnc(-c3ccccc3C(=O)O)o2)cc1,IC50,[6],919 nM (active)
N#Cc1ccc(C(=O)Nc2cc(N3CCCCC3)ncn2)cc1,IC50,[7],> 21.8 µM (inactive)
COCCNc1nc(NCc2ccc(C(C)C)cc2)c2sccc2n1,AC50,[8],3.95 µM (active)
same,IC50,[9],24.5 µM (inactive)
same,IC50,[10],13 µM (active)
same,AC50,[11],3 µM (active)
same,AC50,[12],17.5 µM (active)
same,AC50,[13],47.4 µM (active)
same,AC50,[14],33.2 µM (active)
